Laboratory results as given in ChEMBL document CHEMBL5518203, “Rational Design of Benzobisheterocycle Metallo-β-Lactamase Inhibitors: A Tricyclic Scaffold Enhances Potency against Target Enzymes” (J Med Chem, 2024).
Converted amounts (≈) assume the structure as drawn. The source made the active and inactive calls. No cut-off for these calls is given here.

Experiments:
[1] = target: Metallo-beta-lactamase type 2 (Bacteria, UniProt C7C422); experiment: Inhibition of his6-tagged NDM-1 (unknown origin) expressed in Escherichia coli BL21-DE3 incubated for 16 hrs
Chain of Metallo-beta-lactamase type 2 (C7C422 whole entry): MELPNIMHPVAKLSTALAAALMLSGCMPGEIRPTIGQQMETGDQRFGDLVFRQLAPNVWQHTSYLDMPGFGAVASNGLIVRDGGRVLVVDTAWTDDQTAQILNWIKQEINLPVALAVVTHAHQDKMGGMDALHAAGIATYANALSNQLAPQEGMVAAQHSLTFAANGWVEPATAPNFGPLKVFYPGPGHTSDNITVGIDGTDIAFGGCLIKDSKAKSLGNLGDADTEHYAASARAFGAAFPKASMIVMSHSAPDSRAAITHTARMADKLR

[2] = Inhibition of his6-tagged IMP-1 (unknown origin) expressed in Escherichia coli BL21-DE3 incubated for 16 hrs; design: species or system Bacteria
[3] = Inhibition of his6-tagged VIM-2 (unknown origin) expressed in Escherichia coli BL21-DE3 incubated for 16 hrs
[4] = Inhibition of his6-tagged SFH-1 (unknown origin) expressed in Escherichia coli BL21-DE3 incubated for 16 hrs; design: species or system Enzyme
[5] = Inhibition of his6-tagged L1 (unknown origin) expressed in Escherichia coli BL21-DE3 incubated for 16 hrs; design: species or system Enzyme inhibition
[6] = tested on: L929; experiment: Cytotoxicity against mouse L929 cells assessed as reduction in cell viability at 100 microg/ml incubated for 24 hrs by MTT assay; type: toxicity, cell-based; conditions: l929, 24 h
[7] = Stability in human plasma assessed as half life by HPLC analysis; type: ADME, cell-free
[8] = target: Metallo-beta-lactamase type 2 (Bacteria) (UniProt C7C422); experiment: Inhibition of full length NDM-1 (unknown origin) expressed in Escherichia DH5alpha at 100 microg/ml measured at 1 to 5 hrs; conditions: dose 100.0 µg/ml, time 1-5 hrs
Chain of Metallo-beta-lactamase type 2 (Bacteria) (C7C422 whole entry): as above

[9] = tested on: Klebsiella pneumoniae; experiment: Potentiation of meropenem induced antibacterial activity against Klebsiella pneumoniae LC82 expressing IMP-13 assessed as meropenem MIC by CLSI based broth microdilution method; type: functional
[10] = tested on: Klebsiella pneumoniae; experiment: Potentiation of meropenem induced antibacterial activity against Klebsiella pneumoniae 6907 expressing VIM-2 assessed as meropenem MIC by CLSI based broth microdilution method; type: functional
[11] = tested on: Klebsiella pneumoniae; experiment: Potentiation of meropenem induced antibacterial activity against Klebsiella pneumoniae 5639 expressing VIM-24 assessed as meropenem MIC by CLSI based broth microdilution method; type: functional
[12] = tested on: Klebsiella pneumoniae; experiment: Potentiation of meropenem induced antibacterial activity against Klebsiella pneumoniae 1.37 expressing NDM-1 assessed as meropenem MIC by CLSI based broth microdilution method; type: functional
[13] = tested on: Klebsiella pneumoniae; experiment: Potentiation of meropenem induced antibacterial activity against Klebsiella pneumoniae 7.15 expressing NDM-1 assessed as meropenem MIC by CLSI based broth microdilution method; type: functional
[14] = tested on: Klebsiella pneumoniae; experiment: Potentiation of meropenem induced antibacterial activity against Klebsiella pneumoniae 1.41 expressing NDM-1 assessed as meropenem MIC by CLSI based broth microdilution method; type: functional
[15] = tested on: Enterobacter cloacae; experiment: Potentiation of meropenem induced antibacterial activity against Enterobacter cloacae 6.31 expressing NDM-1 assessed as meropenem MIC by CLSI based broth microdilution method; type: functional
[16] = tested on: Enterobacter cloacae; experiment: Potentiation of meropenem induced antibacterial activity against Enterobacter cloacae 1.28 expressing NDM-1 assessed as meropenem MIC by CLSI based broth microdilution method; type: functional
[17] = tested on: Escherichia coli; experiment: Potentiation of meropenem induced antibacterial activity against Escherichia coli 3.68 expressing NDM-1 assessed as meropenem MIC by CLSI based broth microdilution method; type: functional
[18] = tested on: Providencia rettgeri; experiment: Potentiation of meropenem induced antibacterial activity against Providencia rettgeri 1.27 expressing NDM-1 assessed as meropenem MIC by CLSI based broth microdilution method; type: functional
[19] = tested on: Klebsiella pneumoniae; experiment: Antibacterial activity against Klebsiella pneumoniae LC82 assessed as inhibition of bacterial growth by CLSI based broth microdilution method; type: functional
[20] = tested on: Klebsiella pneumoniae; experiment: Antibacterial activity against Klebsiella pneumoniae 6907 assessed as inhibition of bacterial growth by CLSI based broth microdilution method; type: functional
[21] = tested on: Klebsiella pneumoniae; experiment: Antibacterial activity against Klebsiella pneumoniae 5639 assessed as inhibition of bacterial growth by CLSI based broth microdilution method; type: functional
[22] = tested on: Klebsiella pneumoniae; experiment: Antibacterial activity against Klebsiella pneumoniae 1.37 assessed as inhibition of bacterial growth by CLSI based broth microdilution method; type: functional
[23] = tested on: Klebsiella pneumoniae; experiment: Antibacterial activity against Klebsiella pneumoniae 7.15 assessed as inhibition of bacterial growth by CLSI based broth microdilution method; type: functional
[24] = tested on: Klebsiella pneumoniae; experiment: Antibacterial activity against Klebsiella pneumoniae 1.41 assessed as inhibition of bacterial growth by CLSI based broth microdilution method; type: functional
[25] = tested on: Enterobacter cloacae; experiment: Antibacterial activity against Enterobacter cloacae 6.31 assessed as inhibition of bacterial growth by CLSI based broth microdilution method; type: functional
[26] = tested on: Enterobacter cloacae; experiment: Antibacterial activity against Enterobacter cloacae 1.28 assessed as inhibition of bacterial growth by CLSI based broth microdilution method; type: functional
[27] = tested on: Providencia rettgeri; experiment: Antibacterial activity against Providencia rettgeri 1.27 assessed as inhibition of bacterial growth by CLSI based broth microdilution method; type: functional

| Structure (SMILES) | IC50 [1] | IC50 ([2]; read-out: IC50) | IC50 ([3]; read-out: IC50) | IC50 ([4]; read-out: IC50) | IC50 ([5]; read-out: IC50) | IC50 [4] | also measured |
| --- | --- | --- | --- | --- | --- | --- | --- |
| SC[C@H]1SC[C@@H]2SCCN21 (racemic) | 1.2 µM | 1.09 µM | 0.88 µM | 7.5 µM | 4.9 µM | – | – |
| SC[C@H]1SC[C@@H]2Nc3ccccc3N21 (relative stereo) | – | 1.01 µM | 1.4 µM | 3.7 µM | 0.62 µM | – | Activity ([6]; at 100 µg/mL): 20%; t1/2 [7]: 2.45 h |
| O=C(O)[C@@H]1CS[C@H]2CS[C@H](CCS)N21 | 3.1 µM | – | – | – | 12 µM | Not Active | IC50 [2]: Not Active; IC50 [3]: Not Active |
| NCCOC(=O)[C@@H]1CS[C@H]2CS[C@H](CS)N21 | 53 µM | – | – | – | 58 µM | Not Active | – |
| O=C(NCc1ccccc1)[C@@H]1CS[C@H]2CS[C@H](CS)N21 | 7.7 µM | – | – | – | 8.9 µM | Not Active | – |
| Nc1nc(COC(=O)[C@@H]2CS[C@H]3CS[C@H](CS)N32)cs1 | 27 µM | – | – | – | 30 µM | Not Active | – |
| CCOC(=O)[C@]12CS[C@H](CS)N1[C@H](C(=O)O)CS2 | 13 µM | – | – | – | – | Not Active | IC50 [2]: Not Active; IC50 [3]: Not Active; IC50 [5]: Not Active |
| CC(C)(C)OC(=O)NCCOC(=O)[C@@H]1CS[C@H]2CS[C@H](CS)N21 | 7.9 µM | – | – | – | 5.4 µM | Not Active | – |
| SC[C@H]1SC[C@@H]2Sc3ccccc3N21 (racemic) | 0.29 µM | 0.088 µM | 0.063 µM | 1.4 µM | 0.67 µM | – | Activity ([6]; dose 100 µg/ml): Non-Toxic; t1/2 [7]: 2.62 h; inhibition [8]: Active; MIC [9]: 0.125 µg/mL; MIC [10]: 0.125 µg/mL; MIC [11]: 0.125 µg/mL; MIC [12]: 16 µg/mL; MIC [13]: 32 µg/mL; MIC [14]: 8 µg/mL; MIC [15]: 16 µg/mL; MIC [16]: 8 µg/mL; MIC [17]: 32 µg/mL; MIC [18]: 32 µg/mL |
| CCOC(=O)[C@@H]1CS[C@H]2CS[C@H](CS)N21 | 2.7 µM | 0.26 µM | 0.17 µM | 5.5 µM | 6.9 µM | – | – |
| SCC[C@H]1SC[C@@H]2SCCN21 (racemic) | 8.3 µM | 5.8 µM | 1.2 µM | 55 µM | 7.8 µM | – | – |
| O=C(Nc1ccccc1)[C@@H]1CS[C@H]2CS[C@H](CS)N21 | 20 µM | – | – | – | 15 µM | Not Active | – |
| C[C@@H](O)[C@H]1C(=O)N2C(C(=O)O)=C(S[C@@H]3CN[C@H](C(=O)N(C)C)C3)[C@H](C)[C@H]12 [MEROPENEM] | – | – | – | – | – | – | MIC [19]: 1 µg/mL (≈ 2.61 µM); MIC [20]: 8 µg/mL (≈ 20.9 µM); MIC [21]: 4 µg/mL (≈ 10.4 µM); MIC [22]: 64 µg/mL (≈ 167 µM); MIC [23]: 128 µg/mL (≈ 334 µM); MIC [24]: 128 µg/mL (≈ 334 µM); MIC [25]: 54 µg/mL (≈ 141 µM); MIC [26]: 128 µg/mL (≈ 334 µM); MIC [27]: 128 µg/mL (≈ 334 µM) |
| COc1ccc(CNC(=O)[C@@H]2CS[C@H]3CS[C@H](CS)N32)cc1 | 52 µM | – | – | – | 24 µM | Not Active | – |
| Nc1ccccc1NC(=O)[C@@H]1CS[C@H]2CS[C@H](CS)N21 | 29 µM | – | – | – | 32 µM | Not Active | – |
| O=C(O)[C@@H]1CS[C@H]2CS[C@H](CS)N21 | 13 µM | 17.3 µM | 8.5 µM | 0.79 µM | 22 µM | – | t1/2 [7]: 0.383 h |
